From patent publication US20230203485A1, “METHODS FOR MODULATING MHC-I EXPRESSION AND IMMUNOTHERAPY USES THEREOF” (Dana-Farber Cancer Institute, Inc., priority 2020, published 2023)

System: class I antigen presentation gene expression in MCC cell lines
Assay: RNA-seq / DESeq2 differential expression of MCC cell lines at baseline and after IFN-γ stimulation
Format: cell-based, human
Conditions: for log2FoldChange: 11 MCC cell lines, baseline vs IFNγ, negative LFC = upregulation in IFNγ-treated
Experimental: FIG. 2A comprises RNA-seq heatmaps of class I antigen presentation gene expression in MCC lines and controls.
FIG. 2B is a volcano plot of differentially expressed genes (genes below FDR cutoff 0.01 are shown in yellow) between baseline and IFN-γ-treated MCC cell lines. Differential expression analysis was performed using DESeq2, and negative LFC indicates increased expression in +IFN-γ samples. IFN genes are highlighted in red.
RNA samples were first assessed for quality using the Agilent Bioanalyzer (DV200 metric). One hundred ng of RNA were used as the input for first strand cDNA synthesis using Superscript III reverse transcriptase and Illumina's TruSeq RNA Access Sample Prep Kit. Synthesis of the second strand of cDNA was followed by indexed adapter ligation with UMI (unique molecular index) adaptors. Subsequent PCR amplification enriched for adapted fragments. Amplified libraries were quantified, normalized, pooled, and hybridized with exome targeting oligos. Following hybridization, bead clean-up, elution and PCR was performed to prepare library pools for sequencing on Illumina flowcell lanes. Transcriptomes were sequenced to a coverage of at least 50 million reads in pairs.
Raw fastq files for fibroblast and keratinocyte control lines were downloaded from SRA using R Bioconductor package SRAdb (Mayakonda et al. (2018) supra; Zhu et al. (2013) BMC Bioinformatics 14 (1): 1-4) using accession codes SRP126422 (4 replicates from control samples ‘NN’) and SRP131347 (6 replicates with condition: control and genotype: control). These fastq files, along with those for the mkl1 and waga cell lines, were aligned using STAR version 2.7.3a (Dobin et al. (2013) Bioinformatics 29 (1): 15-21), using index genome reference file downloaded from ftp.ebi.ac.uk/pub/databases/gencode/Gencode_human/release_19/GRCh37.p13.genome.fa.gz, transcript annotation file downloaded from data.broadinstitute.org/snowman/hg19/star/gencode.v19.annotation.gtf, and with the following options: --twopassMode Basic, --outSAMstrandField intronMotif, --alignIntronMax 1000000, --alignMatesGapMax 1000000, --sjdbScore 2, --outSAMtype BAM Unsorted, --outSAMattributes NH HI NM MD AS XS, --outFilterType BySJout, --outSAMunmapped Within, --genomeLoad NoSharedMemory, --outFilterScoreMinOverLread 0, --outFilterMatchNminOverLread 0, --outFilterMismatchNmax 999, and outFilterMultimapNmax 20. Duplicates were marked with picard MarkDuplicates version 2.22.0-SNAPSHOT.
RNA-sequencing bam files for MCC tumor and cell line samples were downloaded from the Broad Genomics Firecloud/Terra platform using the Google Cloud Storage command line tool gsutil version 4.5 (github.com/GoogleCloudPlatform/gsutil/).
Gene counts were obtained from bam files using featureCounts version 2.0.0 (doi.org/10.1093/bioinformatics/btt656). Very lowly expressed genes with average count across samples less than 1 were excluded from analysis. Between-sample distance metrics were computed using the Euclidean distance on the vectors of variance-stabilized counts obtained from the vst function in the DESeq2 R Bioconductor package ([…]; Love et al. (2014) Genome Biology 15 (12): 550).
Differential expression analysis was carried out between (1) viral positive and viral negative samples (adjusting for cell line or tumor as a covariate), (2) cell line and tumor samples (adjusting for viral status as a covariate), and (3) IFNγ plus and minus samples (adjusting for viral status as a covariate) using the negative binomial GLM Wald test of DESeq2, where significance was assessed using the p-values adjusted for multiple comparisons under default settings. To account for potential global gene expression differences among sample groups, RUVg (Risso et al. (2014) […] 32 (9): 896-902) was used to estimate latent factors of unwanted variation from the list of housekeeping genes downloaded from www.tau.ac.il/˜elieis/HKG/HK_genes.txt. […]

IFN-y: type II interferon, recombinant human, used to treat MCC cells
log2FoldChange (ENSG00000259321.1 (symbol NA)): −2.031 | log2FoldChange (ENSG00000259529.1 (symbol NA)): −0.9956 | log2FoldChange (ENSG00000260929.1 (symbol NA)): −3.413 | log2FoldChange (ENSG00000261644.1 (symbol NA)): −3.585 | log2FoldChange (ENSG00000261690.1 (symbol NA)): −3.339 | log2FoldChange (ENSG00000261884.2 (symbol NA)): −2.414 | log2FoldChange (ENSG00000262222.1 (symbol NA)): −3.296 | log2FoldChange (ENSG00000262979.1 (symbol NA)): −3.334 | log2FoldChange (ENSG00000263013.1 (symbol NA)): −1.286 | log2FoldChange (ENSG00000263120.1 (symbol NA)): −1.445 | log2FoldChange (ENSG00000263179.1 (symbol NA)): −3.474 | log2FoldChange (ENSG00000269640.1 (symbol NA)): −6.567 | log2FoldChange (ENSG00000271579.1 (symbol NA)): −6.737 | log2FoldChange (ENSG00000273189.1 (symbol NA)): −1.701 | log2FoldChange (EPSTI1 ENSG00000133106.10): −3.837 | log2FoldChange (FBXO7 ENSG00000100225.13): −0.4101 | log2FoldChange (FBXO39 ENSG00000177294.6): −6.492 | log2FoldChange (FBXO47 ENSG00000204952.2): −4.04 | log2FoldChange (FLT3LG ENSG00000090554.8): −2.012 | log2FoldChange (HELZ2 ENSG00000130589.12): −1.739 | log2FoldChange (ICAM1 ENSG00000090339.4): −6.633 | log2FoldChange (IFI27 ENSG00000165949.8): −3.4 | log2FoldChange (IFI35 ENSG00000068079.3): −6.454 | log2FoldChange (IL12RB1 ENSG00000096996.11): −4.561 | log2FoldChange (IRF8 ENSG00000140968.6): −2.927 | log2FoldChange (IRF9 ENSG00000213928.4): −2.537 | log2FoldChange (ISG20 ENSG00000172183.10): −2.416 | log2FoldChange (KRT39 ENSG00000196859.3): −4.95 | log2FoldChange (LGALS3BP ENSG00000108679.8): −1.502 | log2FoldChange (LGALS9 ENSG00000168961.12): −2.739 | log2FoldChange (LGALS17A ENSG00000226025.5): −5.881 | log2FoldChange (LINC01993 ENSG00000204277.1): −2.419 | log2FoldChange (LOC254028 ENSG00000258573.1): −5.436 | log2FoldChange (LOC100294362 ENSG00000263069.1): 1.32 | log2FoldChange (LOC100996660 ENSG00000267248.1): −0.6048 | HLA-A, -B, and -C mRNA (MCC-336, line non-IFN-responsive by flow cytometry): lack of IFN-induced HLA-A, -B, and -C mRNA upregulation | log2FoldChange (MIR762HG ENSG00000260083.1): −0.6586 | log2FoldChange (MLKL ENSG00000168404.8): −2.957 | log2FoldChange (MT2A ENSG00000125148.6): −1.532 | log2FoldChange (MVP ENSG00000013364.14): −1.512 | log2FoldChange (MX2 ENSG00000183486.8): −5.048 | log2FoldChange (MXI ENSG00000157601.9): −7.168 | log2FoldChange (NLRC5 ENSG00000140853.11): −5.85 | log2FoldChange (NUCB1 ENSG00000104805.11): −0.6283 | log2FoldChange (OAS1 ENSG00000089127.8): −4.621 | log2FoldChange (OAS2 ENSG00000111335.8): −5.442 | log2FoldChange (OAS3 ENSG00000111331.8): −2.277 | log2FoldChange (OASL ENSG00000135114.8): −6.129 | log2FoldChange (OGFR ENSG00000060491.12): −1 | log2FoldChange (PARP4 ENSG00000102699.5): −1.087 | log2FoldChange (PATL2 ENSG00000229474.2): −4.443 | log2FoldChange (PLK1 ENSG00000166851.10): 0.5496 | log2FoldChange (PMAIP1 ENSG00000141682.11): −0.9928 | log2FoldChange (PML ENSG00000140464.15): −1.421 | log2FoldChange (PSMA3 ENSG00000100567.8): −0.4149 | log2FoldChange (PSMB10 ENSG00000205220.7): −5.255 | log2FoldChange (PSME1 ENSG00000092010.10): −1.964 | log2FoldChange (PSME2 ENSG00000100911.9): −1.919 | log2FoldChange (RAB2B ENSG00000129472.8): −0.4425 | log2FoldChange (RIN3 ENSG00000100599.11): −2.337 | log2FoldChange (RNF31 ENSG00000092098.12): −0.6387 | log2FoldChange (RNF213 ENSG00000173821.15): −3.097 | log2FoldChange (SAMHD1 ENSG00000101347.7): −2.663 | log2FoldChange (SOCS1 ENSG00000185338.4): −2.585 | log2FoldChange (SOCS3 ENSG00000184557.3): −1.797 | log2FoldChange (SPTLC3 ENSG00000172296.8): −2.773 | log2FoldChange (STAT3 ENSG00000168610.10): −0.9181 | log2FoldChange (TEKT5 ENSG00000153060.3): −1.743 | log2FoldChange (TRAFD1 ENSG00000135148.7): −0.5883 | log2FoldChange (TRIM25 ENSG00000121060.10): −1.048 | log2FoldChange (TRIM69 ENSG00000185880.8): −2.829 | log2FoldChange (USP18 ENSG00000184979.9): −1.899 | log2FoldChange (USP30-AS1 ENSG00000256262.1): −8.218 | log2FoldChange (VPS13C ENSG00000129003.11): −0.9131 | log2FoldChange (WARS ENSG00000140105.13): −3.32 | log2FoldChange (WIPI1 ENSG00000070540.8): −1.205 | log2FoldChange (XAFI ENSG00000132530.12): −11.47 | log2FoldChange (ZBP1 ENSG00000124256.10): −5.347 | log2FoldChange (ZNFX1 ENSG00000124201.10): −1.109
